From US10736859B2, “Eutectic formulations of cyclobenzaprine hydrochloride and amitriptyline hydrochloride” (Tonix Pharma Holdings Limited, priority 2013, dated 2020)

What was measured:
[1] = DSC, FT-IR/ATR and XRPD compatibility of Cyclobenzaprine HCl with additional excipients, mixed (A) and milled (B) 1:1 mixtures (Example 2); assay type: physicochemical; settings: DSC; for Interactions between Cyclobenzaprine HCl and excipients, Mixture 1:1 (mixed): mixture A, mechanical mixing only; for Interactions between Cyclobenzaprine HCl and excipients, Mixture 1:1 (milled): mixture B, ground in agate mortar
Protocol: As described above, thermal analytical techniques were further used to assess the compatibility of a drug product (tablet) containing Cyclobenzaprine HCl (API). The compatibility assessment was carried out between the API and additional excipients in a 1:1 ratio. The 1:1 API-excipient mixtures were formed in two different ways: first, by mixing only, and second, by strong milling in an agate mortar. The thermal behavior recorded in the two different mixtures were compared with those of the single components. On the basis of thermal events recorded for each component and for the mixtures, the analyses were carried out by investigating the meanings of the peaks recorded by differential scanning calorimetry (DSC) in mixtures between the API and the excipients. Furthermore, in order to define the nature of the interaction, the Fourier Transformate Infra Red Spectroscopy with Total Attenuated Reflectance (FT-IR/ATR) and X-ray powder diffraction (XRPD) of some samples (API, excipient, and mixed and milled mixtures) was carried out and compared.
Aliquots of API and each excipient were weighed in a ratio of 1:1 and ground in an agate mortar. Then, the homogeneous mixtures were analyzed. These sample mixtures were labeled “B”, while the mechanical-only mixtures were labeled “A.”
The DSC heating curves were obtained by TA 821 DSC Mettler instrument under the following conditions: • Heating rate: 10° C./min • Ambient: Nitrogen 30 mL/min • Sample holder: normal open aluminum pan • Temperature range: from 25° C. to 250° C. • Instrument calibration: Indium sample purity 99.999% Fourier Transformate Infra Red Spectroscopy with Total Attenuated Reflectance (FT-IR/ATR)
The FT-IR spectra were collected with a Perkin Elmer spectrum Two instrument with air as background and 4 cm^−1 resolution.
X-ray powder diffraction (XRPD) tests were performed with the ULTIMA IV instrument (Rigaku), laying the sample on a static sample holder. The X-ray focusing slit has a variable width, interlocked with the q value. The X-ray tube has a Copper target, with a current intensity of 40 mA and a voltage of 40 kV. Radiation was generated by the Cockcroft-Walton method, and was constituted by Kα1 (1.540562 Å) and Kα2 (1.544398 Å). The analytical conditions were: • Fixed Time; sampling width 0.02 deg, scanning rate 1.3 s/step, 2 q range 3.35 deg and sample holder; amorphous glass equiangular 9200/2G, 0.2 mm deep. The sample was pressed with a glass plate.

[2] = XRPD of binary Cyclobenzaprine HCl/mannitol mixtures (Example 3); assay type: physicochemical; settings: Cyclobenzaprine HCl/mannitol mixtures 30, 50, 65, 75 and 90% API, no thermal treatment
Protocol: In order to confirm the eutectic formation and to characterize its physical properties, several binary mixtures at different ratios of API-excipient were prepared and analyzed by DSC and by X-ray powder diffraction (XRPD). The mixtures were obtained by gently milling in agate mortar of micronized Cyclobenzaprine HCl and mannitol, in order to obtain homogeneous distribution of the particles. For each DSC heating curve, the onset temperature and the enthalpy were evaluated both for the eutectic contribute and for the excess of component. The recorded values were plotted and a phase diagram between the two components was obtained with a characteristic profile of phase diagrams of eutectic mixtures.
Mixtures also were investigated by XRPD and compared with the patterns of pure components. […] The XRPD patterns obtained in the mixtures, compared with pure components, were plotted in order to confirm the linearity of the peak intensities (cpf) of mannitol and Cyclobenzaprine HCl, and a proportional peak height at characteristic 2 theta angles.
X-ray powder diffraction (XRPD) tests were performed with a ULTIMA IV (Rigaku) instrument, laying the sample on a static sample holder. […] The radiation generated by the Cockcroft-Walton method is constituted by Kα1 (1.540562 Å) and Kα2 (1.544398 Å). […]

OC[C@@H](O)[C@@H](O)[C@H](O)[C@H](O)CO [Mannitol]
Interactions between Cyclobenzaprine HCl and excipients, Mixture 1:1 (mixed) [1]: Eutectic | Interactions between Cyclobenzaprine HCl and excipients, Mixture 1:1 (mixed) ([1]; listed as mannitol): physical complex interaction peak (eutectic) | Interactions between Cyclobenzaprine HCl and excipients, Mixture 1:1 (milled) [1]: Eutectic | Interactions between Cyclobenzaprine HCl and excipients, Mixture 1:1 (milled) ([1]; listed as mannitol): physical complex interaction peak (eutectic) | Adduct formation by XRPD [2]: no adduct formation, only a physical eutectic formation
